Consider one sequence from ChEMBL document CHEMBL2074557 (Drug Metab Dispos, 1999).

For the series, the target named is ATP-dependent translocase ABCB1 (Mus musculus, UniProt P21447). The series can be described thus: TP_TRANSPORTER: increase in plasma concentration in PGP(-/-) mouse. In kind it is functional, organism-based. The following applies: in vivo.
Sequence of ATP-dependent translocase ABCB1 (P21447 whole entry): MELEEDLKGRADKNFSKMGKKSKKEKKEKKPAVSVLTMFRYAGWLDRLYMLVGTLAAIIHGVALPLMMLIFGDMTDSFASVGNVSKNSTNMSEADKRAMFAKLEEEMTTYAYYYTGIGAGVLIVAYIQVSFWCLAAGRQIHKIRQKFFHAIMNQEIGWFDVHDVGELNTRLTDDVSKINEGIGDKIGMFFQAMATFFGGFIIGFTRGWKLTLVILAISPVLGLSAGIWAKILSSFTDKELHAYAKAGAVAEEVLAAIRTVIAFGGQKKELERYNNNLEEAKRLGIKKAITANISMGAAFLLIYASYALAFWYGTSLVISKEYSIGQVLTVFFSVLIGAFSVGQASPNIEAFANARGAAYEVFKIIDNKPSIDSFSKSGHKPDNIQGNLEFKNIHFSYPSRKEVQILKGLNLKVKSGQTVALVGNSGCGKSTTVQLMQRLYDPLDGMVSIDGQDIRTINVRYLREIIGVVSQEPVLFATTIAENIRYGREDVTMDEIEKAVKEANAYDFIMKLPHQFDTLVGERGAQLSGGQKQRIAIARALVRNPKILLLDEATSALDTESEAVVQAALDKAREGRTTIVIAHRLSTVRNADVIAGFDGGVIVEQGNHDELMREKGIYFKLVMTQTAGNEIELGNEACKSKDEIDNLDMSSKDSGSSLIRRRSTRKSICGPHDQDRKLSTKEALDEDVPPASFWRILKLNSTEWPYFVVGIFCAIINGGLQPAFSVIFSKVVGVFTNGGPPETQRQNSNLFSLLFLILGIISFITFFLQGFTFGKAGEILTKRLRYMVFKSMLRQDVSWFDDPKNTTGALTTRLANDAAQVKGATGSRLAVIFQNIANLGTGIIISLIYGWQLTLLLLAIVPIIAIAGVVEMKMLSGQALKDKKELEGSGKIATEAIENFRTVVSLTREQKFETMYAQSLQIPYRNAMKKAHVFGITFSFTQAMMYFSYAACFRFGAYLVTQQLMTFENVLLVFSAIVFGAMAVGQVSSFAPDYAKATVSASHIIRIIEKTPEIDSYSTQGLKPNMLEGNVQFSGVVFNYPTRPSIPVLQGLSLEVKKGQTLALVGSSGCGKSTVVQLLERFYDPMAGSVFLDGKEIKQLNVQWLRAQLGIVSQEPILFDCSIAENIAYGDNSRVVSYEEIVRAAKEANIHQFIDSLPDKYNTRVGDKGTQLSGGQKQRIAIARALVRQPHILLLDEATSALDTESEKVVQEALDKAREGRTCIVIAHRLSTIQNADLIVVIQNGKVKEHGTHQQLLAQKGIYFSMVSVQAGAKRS

IVERMECTIN: the Activity entry was “substrate [+]”.
